Calls of active or inactive are those of the source.
What was measured:
Cytochrome P450 1A2 = target: T1, Cytochrome P450 1A2 (Homo sapiens, UniProt P05177);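 further: PubChem cytochrome P450 panel assay, CYP1A2 panel member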
T1 sequence (P05177 whole entry): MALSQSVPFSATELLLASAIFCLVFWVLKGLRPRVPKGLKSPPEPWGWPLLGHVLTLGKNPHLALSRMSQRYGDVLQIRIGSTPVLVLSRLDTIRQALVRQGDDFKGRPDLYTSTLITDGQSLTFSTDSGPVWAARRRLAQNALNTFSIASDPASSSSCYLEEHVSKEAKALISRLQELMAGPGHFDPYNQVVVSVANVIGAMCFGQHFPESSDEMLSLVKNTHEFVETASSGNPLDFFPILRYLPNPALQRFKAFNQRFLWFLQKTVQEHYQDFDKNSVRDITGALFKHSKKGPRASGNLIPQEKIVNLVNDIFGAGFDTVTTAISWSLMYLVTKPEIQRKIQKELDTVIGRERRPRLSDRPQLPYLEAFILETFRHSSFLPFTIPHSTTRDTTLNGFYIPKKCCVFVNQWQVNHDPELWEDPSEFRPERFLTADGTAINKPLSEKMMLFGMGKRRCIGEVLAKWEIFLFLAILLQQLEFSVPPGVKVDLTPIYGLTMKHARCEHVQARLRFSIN

[1] = Luminescence Cell-Based Dose Response HTS to Identify Activators of Luciferase Translation or Activity in H4 […] Cells. [Related pubchem assays: 1829 (Project Summary), 1814 (Primary HTS)]; format: functional
H4 = test: Luminescence Cell-Based Dose Response HTS to Identify Activators of 5'UTR Stem-Loop Driven Prion Protein mRNA Translation in H4 Neuroglioblastoma Cells. [Related pubchem assays: 1829 (Project Summary), 1814 (Primary HTS)]; format: functional; conditions: Homo sapiens
[2] = luciferase reporter signal suppression in cells – H4 neuroglioma cells, luminescence, dose response (AID 1990); format: functional, cell-based
[3] = Luminescence Cell-Based Dose Response HTS to Identify Inhibitors of 5'UTR Stem-Loop Driven Prion Protein mRNA Translation in H4 Neuroglioblastoma Cells. [Related pubchem assays: 1827 (Project Summary), 1813 (Primary HTS)]; format: functional
[4] = alpha-synuclein stem-loop luciferase translation blockers – H4 neuroglioma cells, luminescence, confirmation (AID 1988); format: functional, cell-based
Cytochrome P450 3A4 = Cytochrome P450 3A4 (Homo sapiens, UniProt P08684);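 further: CYP3A4 tested as one member of a cytochrome P450 panel screen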
Cytochrome P450 3A4, sequence (P08684 whole entry): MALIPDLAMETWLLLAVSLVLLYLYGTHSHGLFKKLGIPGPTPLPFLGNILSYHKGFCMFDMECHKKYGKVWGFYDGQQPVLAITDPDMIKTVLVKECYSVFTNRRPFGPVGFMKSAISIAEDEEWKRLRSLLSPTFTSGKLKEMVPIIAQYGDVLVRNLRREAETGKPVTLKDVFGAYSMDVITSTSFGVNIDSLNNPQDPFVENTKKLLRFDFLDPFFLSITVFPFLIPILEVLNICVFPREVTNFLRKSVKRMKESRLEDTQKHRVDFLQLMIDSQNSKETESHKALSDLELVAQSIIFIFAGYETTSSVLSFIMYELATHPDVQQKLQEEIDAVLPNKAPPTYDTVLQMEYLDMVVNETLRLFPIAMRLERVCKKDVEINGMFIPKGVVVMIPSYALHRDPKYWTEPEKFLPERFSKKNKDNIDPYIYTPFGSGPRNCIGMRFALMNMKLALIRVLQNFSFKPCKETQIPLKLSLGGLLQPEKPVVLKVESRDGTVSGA

Cytochrome P450 2C19 = Cytochrome P450 2C19 (Homo sapiens, UniProt P33261); test: Cytochrome panel assay with activity outcomes. Panel member name: p450-cyp2c19 Compounds with AC50 equal or less than 10 uM are considered active; format: functional; conditions: read-out: AC50
Cytochrome P450 2C19, sequence (P33261 whole entry): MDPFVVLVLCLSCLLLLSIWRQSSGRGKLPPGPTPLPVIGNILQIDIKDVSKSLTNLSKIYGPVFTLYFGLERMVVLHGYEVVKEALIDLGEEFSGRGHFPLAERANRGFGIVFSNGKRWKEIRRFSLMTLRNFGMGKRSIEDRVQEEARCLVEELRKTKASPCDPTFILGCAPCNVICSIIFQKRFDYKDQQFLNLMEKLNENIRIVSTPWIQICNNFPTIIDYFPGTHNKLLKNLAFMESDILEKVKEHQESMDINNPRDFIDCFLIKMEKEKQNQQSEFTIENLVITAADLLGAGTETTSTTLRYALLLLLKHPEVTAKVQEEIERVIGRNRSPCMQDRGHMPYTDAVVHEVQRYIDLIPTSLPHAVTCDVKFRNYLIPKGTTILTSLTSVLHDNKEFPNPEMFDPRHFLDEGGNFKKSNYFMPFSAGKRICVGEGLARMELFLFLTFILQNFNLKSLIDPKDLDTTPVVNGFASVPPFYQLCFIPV

[5] = NIH-3T3 fibroblast cytotoxicity, dose response, cytotoxicity control, cell-based, fluorescence, Alamar Blue, secondary assay (AID 2327); format: functional;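 further: NIH-3T3 mouse fibroblasts cultured with fluconazole at 8 µg/mL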
[6] = fluconazole-exposed Candida albicans growth modulators – fluorescence, retest, confirmation (AID 2467); format: functional, cell-based
Cytochrome P450 2D6 = Cytochrome P450 2D6 (Homo sapiens, UniProt P10635);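 further: CYP2D6 member of a cytochrome P450 panel assay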
Cytochrome P450 2D6, sequence (P10635 whole entry): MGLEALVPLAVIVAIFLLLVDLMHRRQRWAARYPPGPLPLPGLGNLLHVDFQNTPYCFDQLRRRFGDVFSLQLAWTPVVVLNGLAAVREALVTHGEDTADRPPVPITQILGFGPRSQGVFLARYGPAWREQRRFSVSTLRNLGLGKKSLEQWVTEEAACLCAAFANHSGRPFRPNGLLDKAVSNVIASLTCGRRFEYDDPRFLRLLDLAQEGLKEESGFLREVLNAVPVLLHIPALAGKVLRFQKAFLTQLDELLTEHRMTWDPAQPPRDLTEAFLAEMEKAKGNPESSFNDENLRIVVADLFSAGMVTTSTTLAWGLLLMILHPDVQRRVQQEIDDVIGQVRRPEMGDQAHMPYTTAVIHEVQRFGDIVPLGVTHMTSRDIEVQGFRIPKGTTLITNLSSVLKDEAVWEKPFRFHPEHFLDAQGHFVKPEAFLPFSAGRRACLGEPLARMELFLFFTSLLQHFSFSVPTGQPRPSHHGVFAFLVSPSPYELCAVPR

cells = format: functional
[7] = Trypanosoma cruzi growth suppression in host cells – NIH3T3 host cells, beta-gal luminescence, confirmation (AID 2044); format: functional, cell-based;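 further: intracellular parasites grown in NIH/3T3 mouse fibroblasts as host cells; luminescent beta-galactosidase reporter signal from transgenic T. cruzi replicating inside host cells; inhibitors lower the luminescence signal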
[8] = NIH3T3 cell viability loss – ATP luminescence, mouse fibroblasts, counter-screen, dose response (AID 2010); format: functional, cell-based; conditions: NIH3T3;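 further: cells exposed to compound for about 90 hours before reading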
INS1 = test: INS-1E survival protection against cytokine death – cell-based, luminescence, retest, dose response (AID 449756); format: functional; conditions: Rattus norvegicus;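 further: cell death triggered by IL-1 beta plus TNF-alpha plus IFN-gamma mixture; protective hits raise ATP signal compared with cytokine alone wells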

Q: Which AC50 (Cytochrome P450 1A2) does the source give for `COc1cc(-c2nnc(SCC(=O)Nc3ccc4c(c3)OCCO4)o2)cc(OC)c1OC` here?
A: 15.8 µM (inconclusive)

Q: What does the source list for `CCOC(=O)c1nnc2cc(-c3ccc(Br)cc3)nn2c1C`?
A: EC50 [1]: 27.6 µM (active); EC50 (H4): 88.8 µM (active)

Q: What does the source list for `Cc1cc(C)c(S(C)(=O)=O)c(Oc2ccc(C(C)(C)C)cc2)n1`?
A: EC50 [2]: 15.7 µM (active); EC50 [3]: 1.08 µM (active); EC50 [4]: 80.7 µM (active); AC50 (Cytochrome P450 3A4): 14.1 µM (inconclusive)

Q: With `N[C@@](C(=O)O)(c1ccc(P(=O)(O)O)cc1)C1CC1` as the molecule, how does the AC50 (Cytochrome P450 2C19) read?
A: 25.1 µM (inconclusive)

Q: And the AC50 (Cytochrome P450 1A2)?
A: 50.1 µM (inconclusive)

Q: Which results are given for `Cc1ccccc1Nc1ncccc1C(=O)N1CCOCC1`?
A: EC50 [5]: > 160 µM (inactive); EC50 [6]: > 38 µM (not active)

Q: For `CN(C)c1ncc2ncc(=O)n(C)c2n1`, which AC50 (Cytochrome P450 2D6) is on record?
A: 20 µM (inconclusive)

Q: Which AC50 (Cytochrome P450 2D6) does the source give for `CCOc1ccc2c(ccc(/C=C/c3cc(C)c4cccnc4c3O)[n+]2C)c1` here?
A: 3.16 µM (inconclusive)

Q: And the AC50 (Cytochrome P450 1A2)?
A: 6.31 µM (inconclusive)

Q: For `CN(C)c1ncnc2ccc(-c3ccoc3)cc12`, which AC50 (Cytochrome P450 2C19) is on record?
A: 39.8 µM (inconclusive)

Q: What about the AC50 (Cytochrome P450 3A4) of the same molecule?
A: 12.6 µM (inconclusive)

Q: Which EC50 [5] does the source give for `COC(CN(C)C(=O)c1ccc2c(c1)NC(=O)c1ccccc1S2)OC` here?
A: > 150 µM (inconclusive)

Q: What about the EC50 [6] of the same molecule?
A: > 38 µM (not active)

Q: Which AC50 (Cytochrome P450 2D6) does the source give for `COc1ccccc1CCn1c(=O)c(CCc2ccccc2)nc2cncnc21` here?
A: 25.1 µM (inconclusive)

Q: Which IC50 (cells) does the source give for `Cc1cccc(Cn2ccc(NC(=O)c3ccc4c(c3)OCO4)n2)c1` here?
A: 2.33 µM (active)

Q: Which EC50 [5] does the source give for `CCn1cc(C(=O)c2ccccc2)c2ccccc21` here?
A: > 160 µM (inactive)

Q: And the EC50 [6]?
A: 3.63 µM (active)

Q: With `CCc1cc2c(=O)c(-c3cnn(-c4ccccc4)c3)coc2c(CN2CCOCC2)c1O` as the molecule, how does the AC50 (Cytochrome P450 1A2) read?
A: 15.8 µM (inconclusive)

Q: With `N#Cc1cc(-c2ccccc2)cnc1Sc1ccc(Cl)cc1` as the molecule, how does the AC50 (Cytochrome P450 2D6) read?
A: 10 µM (inconclusive)

Q: What about the AC50 (Cytochrome P450 3A4) of the same molecule?
A: 12.6 µM (inconclusive)

Q: Which AC50 (Cytochrome P450 1A2) does the source give for `CCCOc1ccccc1C1CC(=O)NC(C)=C1C(=O)OCC(C)C` (stereo not given) here?
A: 11.2 µM (inconclusive)

Q: Which IC50 (cells) does the source give for `CC(C)OC(=O)COc1ccc(-c2ccccc2)cc1` here?
A: 6.13 µM (active)

Q: With `COc1ccc(S(=O)(=O)N2CC3C4C=CC(C4)C3C2)cc1` (stereo not given) as the molecule, how does the AC50 (Cytochrome P450 2D6) read?
A: 15.8 µM (inconclusive)

Q: For `COc1ccccc1N1CCN(C(=O)C(NS(=O)(=O)c2cccs2)c2ccccc2)CC1` (stereo not given), which AC50 (Cytochrome P450 2D6) is on record?
A: 15.8 µM (inconclusive)

Q: And the AC50 (Cytochrome P450 1A2)?
A: 2.51 µM (inconclusive)

Q: Which results are given for `Cc1cc(C)c2cc(CN(CCO)C(=O)Nc3ccc(F)cc3)c(O)nc2c1`?
A: EC50 [2]: 18.3 µM (active); EC50 [3]: > 120 µM (not active); EC50 [4]: > 120 µM (not active)

Q: With `Nc1nc(Br)c2c(F)cccc2c1-c1ccc(F)cc1` as the molecule, how does the AC50 (Cytochrome P450 2C19) read?
A: 1.12 µM (inconclusive)

Q: With `Cc1cc(C)nc(SCC(=O)Nc2ccccc2[N+](=O)[O-])n1` as the molecule, how does the AC50 (Cytochrome P450 1A2) read?
A: 17.8 µM (inconclusive)

Q: Which EC50 [3] does the source give for `CC(=O)c1ccc(N=Nc2ccc(N(C)C)cc2)cc1` here?
A: 4.44 µM (active)

Q: What about the EC50 [4] of the same molecule?
A: 4.11 µM (inconclusive)

Q: What does the source list for `Cc1ccc2c(c1)S/C(=C/c1ccc[n+](CCO)c1)N2C`?
A: EC50 [7]: 0.832 µM (active); EC50 [8]: > 60 µM (not active); AC50 (INS1): 2.98 µM (active)

Q: With `CNC(=O)C(=O)NCCc1ccc(Cl)cc1` as the molecule, how does the AC50 (Cytochrome P450 2D6) read?
A: 28.2 µM (inconclusive)

Q: What does the source list for `C[C@H](CC(C#N)(c1ccccc1)c1ccccc1)N1CCCCC1`?
A: AC50 (Cytochrome P450 2C19): 1.58 µM (inconclusive); AC50 (Cytochrome P450 3A4): 3.98 µM (inconclusive)

Q: With `CC(C)(C)NC(=O)c1ccc(NC(=O)c2ccccc2-c2ccccc2C(=O)O)cc1` as the molecule, how does the IC50 (cells) read?
A: 6.42 µM (active)

Q: For `Cn1c(=O)c(-c2ccccc2)nc2cnc(Nc3ccccc3)nc21`, which AC50 (Cytochrome P450 2C19) is on record?
A: 0.0398 µM (inconclusive)

Source: ChEMBL document CHEMBL1201862, “PubChem BioAssay data set” (2004)
